# PubChem BioAssay AID1845219 (Molecular Pharmacology Branch, DTP, NCI, 2023)
# System: SYO-1 tumor spheroids, viability % test/control
# Assay: Anticancer human tumor SYO-1 cell line growth inhibition;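 also: spheroids exposed to agents for 7 days before viability read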;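 as to viability, T/C: 100% = DMSO vehicle control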
# Conditions: spheroids with HUVEC and MSC; for IC50: curve of first compound; for viability, T/C: stronger effect = lower value
# Outline: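 Complex spheroids of malignant cells with endothelial cells and mesenchymal stem cells; agents alone or combined, from near clinical Cmax (or 10 microM if unknown) down in half-log steps, 0.25% DMSO final.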
# [1] = second compound 1 µM, first compound 0.0316 µM
# [2] = second compound 1 µM, first compound 0.1 µM
# [3] = second compound 1 µM, first compound 0.316 µM
# [4] = second compound 1 µM, first compound 1 µM
# [5] = second compound 1 µM, first compound 3.16 µM
# [6] = second compound 1 µM, first compound 10 µM
# [7] = second compound 3.16 µM, first compound 0.0316 µM
# [8] = second compound 3.16 µM, first compound 0.1 µM
# [9] = second compound 3.16 µM, first compound 0.316 µM
# [10] = second compound 3.16 µM, first compound 1 µM
# [11] = second compound 3.16 µM, first compound 3.16 µM
# [12] = second compound 3.16 µM, first compound 10 µM
# [13] = second compound 10 µM, first compound 0.0316 µM
# [14] = second compound 10 µM, first compound 0.1 µM
# [15] = second compound 10 µM, first compound 0.316 µM
# [16] = second compound 10 µM, first compound 1 µM
# [17] = second compound 10 µM, first compound 3.16 µM
# [18] = second compound 10 µM, first compound 10 µM
# [19] = second compound 31.6 µM, first compound 0.0316 µM
# [20] = second compound 31.6 µM, first compound 0.1 µM
# [21] = second compound 31.6 µM, first compound 0.316 µM
# [22] = second compound 31.6 µM, first compound 1 µM
# [23] = second compound 31.6 µM, first compound 3.16 µM
# [24] = second compound 31.6 µM, first compound 10 µM
# [25] = second compound 100 µM, first compound 0.0316 µM
# [26] = second compound 100 µM, first compound 0.1 µM
# [27] = second compound 100 µM, first compound 0.316 µM
# [28] = second compound 100 µM, first compound 1 µM
# [29] = second compound 100 µM, first compound 3.16 µM
# [30] = second compound 100 µM, first compound 10 µM
Structure (SMILES),IC50 (second compound 1 µM) [µM],IC50 (second compound 3.16 µM) [µM],IC50 (second compound 10 µM) [µM],IC50 (second compound 31.6 µM) [µM],IC50 (second compound 100 µM) [µM],"viability, T/C [1] [%]","viability, T/C [2] [%]","viability, T/C [3] [%]","viability, T/C [4] [%]","viability, T/C [5] [%]","viability, T/C [6] [%]","viability, T/C [7] [%]","viability, T/C [8] [%]","viability, T/C [9] [%]","viability, T/C [10] [%]","viability, T/C [11] [%]","viability, T/C [12] [%]","viability, T/C [13] [%]","viability, T/C [14] [%]","viability, T/C [15] [%]",further results
COc1cc(C)[nH]c(=O)c1CN1CCc2c(Cl)cc(C(OC)C3COC3)c(Cl)c2C1=O (stereo not given) + Cn1nnc2c(C(N)=O)ncn2c1=O,> 10,> 10,> 10,> 10,0.697,110,108,97.7,86.7,81.1,73.8,110,107,99.5,89.1,77,67.8,108,107,97.6,"viability, T/C [16]: 89.7%; viability, T/C [17]: 76.2%; viability, T/C [18]: 71.6%; viability, T/C [19]: 119%; viability, T/C [20]: 111%; viability, T/C [21]: 95.1%; viability, T/C [22]: 80.8%; viability, T/C [23]: 69.6%; viability, T/C [24]: 62.4%; viability, T/C [25]: 106%; viability, T/C [26]: 102%; viability, T/C [27]: 69.7%; viability, T/C [28]: 40.5%; viability, T/C [29]: 41.7%; viability, T/C [30]: 35.6%"
Cc1cc(C)c(CNC(=O)c2cc(-c3ccc(CN4CCOCC4)cc3)cc3c2cnn3C2CCCC2)c(=O)[nH]1 + Cn1nnc2c(C(N)=O)ncn2c1=O,> 10,> 10,> 10,> 10,7.99,106,105,110,104,106,97,103,106,103,104,105,89.6,103,106,106,"viability, T/C [16]: 108%; viability, T/C [17]: 101%; viability, T/C [18]: 71.2%; viability, T/C [19]: 106%; viability, T/C [20]: 108%; viability, T/C [21]: 107%; viability, T/C [22]: 111%; viability, T/C [23]: 105%; viability, T/C [24]: 74.6%; viability, T/C [25]: 107%; viability, T/C [26]: 111%; viability, T/C [27]: 107%; viability, T/C [28]: 101%; viability, T/C [29]: 76.1%; viability, T/C [30]: 43.7%"
[2H]c1nc(C)nc([2H])c1-c1cc(NC[C@@H](C)c2cccc3c(C(=O)NC)ccnc23)ncn1 + Cn1nnc2c(C(N)=O)ncn2c1=O,> 10,> 10,> 10,> 10,> 10,105,105,102,98.9,93.3,83,110,113,105,96.5,90,84.8,109,106,106,"viability, T/C [16]: 96.1%; viability, T/C [17]: 90.2%; viability, T/C [18]: 88.4%; viability, T/C [19]: 115%; viability, T/C [20]: 109%; viability, T/C [21]: 110%; viability, T/C [22]: 102%; viability, T/C [23]: 96.4%; viability, T/C [24]: 94%; viability, T/C [25]: 113%; viability, T/C [26]: 115%; viability, T/C [27]: 111%; viability, T/C [28]: 110%; viability, T/C [29]: 93.7%; viability, T/C [30]: 94.3%"
